The conditions of series [1]: cited from earlier work.
The next series concerns GBM patients. Briefly: Adverse events (CTCAE version 4.0) in the same clinical study. Particulars: 46 patients. The format is in vivo, human. As to the method: Baseline evaluation including neurologic assessment, complete blood analysis, and tumor imaging with contrast-enhanced MRI was performed pre-operatively and immediately postoperatively, usually within 48 hours. KPS was graded by the treating provider. Repeat assessment by physical examination and imaging was performed at the completion of initial chemoradiotherapy, just prior to the first vaccine administration. Final eligibility to receive vaccine was determined at this time point. After initiation of vaccine therapy, patients were evaluated every 4 weeks by clinical examination, and every 8 weeks by radiographic imaging with contrast-enhanced MRI. Tumor progression was assessed according to the modified RANO criteria (Table 1). Adverse events were assessed and graded according to the National Cancer Institute Common Terminology Criteria for Adverse Event (CTCAE), version 4.0.

The test system of series [2] is GBM. The following applies: cited from earlier work; for Median PFS / Median Survival: Rad/TMZ plus Avastin arm.
Series [3] deals with GBM. Briefly: Published GBM trials used for comparison (Tables 13 and 14, discussion). Type of series: in vivo, human. Particulars: Rad/TMZ plus Avastin arm.
[4] abbreviates: AVAglio, Chinot et al, NEJM 2014.
The mark [5] stands for this setting: RTOG 0825 Gilbert, et al. NEJM 2014.
The mark [6] stands for this setting: RTOG 0825 Trial, Gilbert, NEJM 2013, N = 637.

Entries after “also recorded” stand apart in the source; their conditions may differ. Read-outs that look alike come from different tables or passages of the source.

With `Cn1nnc2c(C(N)=O)ncn2c1=O` [temozolomide], the “concentrations in the central nervous system relative to plasma concentrations” value in series [1] (following oral administration) is reported as “approximately 30%”. The blood-brain barrier penetration result in series [1] (in vivo) was “able to cross the blood-brain barrier”. In series [1] (taken orally), the bioavailability result is recorded as “greater than 95%”. In the series with GBM patients, the “Any Adverse Event: TWZ-related event” value is reported as 42 (91.3%) no. of patients (%) and the “Grade 3-4 Event: TWZ-related event” value is recorded as 21 (45.6%) no. of patients (%).

In the case of bevacizumab [Avastin], in the series with GBM [2] (setting [4]), the “Median PFS” value is listed as 10.6 months and the “Median Survival” value is listed as 16.8 months. Moreover, in the series on GBM [2] (setting [5]), the “Median PFS” value is 10.7 months and the “Median Survival” value is 16.1 months. In the series with GBM [2] (setting [6]), the “Median Survival, Methylated” value is recorded as 23.2 months and the “Median Survival, Unmethylated” value was 14.3 months. In addition, in the series with GBM [2] (bevacizumab trials), the “Median overall survival, methylated patients” value is 25.0 months and the “Median overall survival, unmethylated patients” value is on record as 14.6 months. In addition, the “Benefit of adding bevacizumab to radiation and temozolomide” value with GBM [2] (newly diagnosed GBM, randomized phase 3 trials vs placebo) is “no significant benefit; also recorded: no improvement in overall survival compared to placebo”. The “Estimated Post-Progression Survival” value in the series on GBM [3] (setting [4]) was 6.2 months. Moreover, the “Estimated Post-Progression Survival” value in the series with GBM [3] (setting [5]) is recorded as 5.4 months.

Source of the values: patent publication US20180318347A1, “METHODS FOR TREATING CANCER” (Agenus Inc., priority 2015, published 2018).
